{"source": "patent US9464084B2", "about": "“P2X7 modulators” (Janssen Pharmaceutica NV, priority 2013, dated 2016)", "key": {"P2X7 [1]": {"target": "T1, P2X7 (Homo sapiens (Human), UniProt Q99572)", "T1 sequence (Q99572 whole entry)": "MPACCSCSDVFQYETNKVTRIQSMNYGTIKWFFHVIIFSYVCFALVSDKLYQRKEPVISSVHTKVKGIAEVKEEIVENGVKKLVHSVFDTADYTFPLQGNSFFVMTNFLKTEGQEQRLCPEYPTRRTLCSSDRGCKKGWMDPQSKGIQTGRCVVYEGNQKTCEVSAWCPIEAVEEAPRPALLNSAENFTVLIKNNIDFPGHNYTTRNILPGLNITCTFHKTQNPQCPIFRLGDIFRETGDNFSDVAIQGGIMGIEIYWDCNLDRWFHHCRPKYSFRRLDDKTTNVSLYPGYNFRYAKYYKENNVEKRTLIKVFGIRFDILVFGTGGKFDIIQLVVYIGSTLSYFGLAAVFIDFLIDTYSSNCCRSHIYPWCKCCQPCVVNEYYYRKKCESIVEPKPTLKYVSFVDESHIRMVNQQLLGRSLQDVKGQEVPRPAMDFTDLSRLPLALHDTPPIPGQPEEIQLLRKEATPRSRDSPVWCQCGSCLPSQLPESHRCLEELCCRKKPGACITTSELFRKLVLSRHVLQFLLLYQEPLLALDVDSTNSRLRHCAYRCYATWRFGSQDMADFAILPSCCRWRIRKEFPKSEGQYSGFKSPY", "experiment": "P2X7 antagonism in human PBMCs (LPS + Bz-ATP induced IL-1β release, ELISA);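 as to all read-outs here: PBMCs from donor human blood, with a further 1.5 h incubation of the cells in the assay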", "assay_type": "cell-based", "conditions": "LPS 30 ng/ml, Bz-ATP 0.5 mM; for PBMC 10 μM (% control): compound 10 μM", "description": "(§1) Human blood was collected using a blood donor program. PBMCs were isolated from blood using a Ficoll density gradient technique. Briefly, blood was laid on Ficoll solution and centrifuged at RT for 20 minutes at 2000 rpm. The buffy layer (between red blood cells and plasma) was carefully collected by aspiration, washed with PBS and centrifuged again at 1500 rpm for 15 minutes. The resulting cell pellet was washed and plated on 96 well-plates for experiments. For the Mouse/Human Whole Blood experiments, 150 μl of either mouse or human blood was platted on 96 well-plates. Lipopolysaccharide (LPS) (30 ng/ml) was added to each well and incubated for 1 hour. Test compounds were then added and incubated for 30 minutes. The P2X7 agonist, 2′(3′)-O-(4-benzoylbenzoyl) adenosine 5′ triphosphate (Bz-ATP) was then added at a final concentration of 0.5 mM (PBMC) or 1 mM (blood). Cells were incubated for an additional 1.5 hours. At that point, supernatant was collected and stored for IL-1β assay using manufacturer's protocol for enzyme-linked immunosorbent assay (ELISA). Data was expressed as percent control, where control is defined as the difference in IL-1β release in LPS+Bz-ATP samples and LPS only samples. Data was plotted as response (% control) versus concentration to generate IC50 values."}, "rat P2X7 [2]": {"target": "T2, rat P2X7 (Rattus norvegicus (Rat), UniProt Q64663)", "T2 sequence (Q64663 whole entry)": "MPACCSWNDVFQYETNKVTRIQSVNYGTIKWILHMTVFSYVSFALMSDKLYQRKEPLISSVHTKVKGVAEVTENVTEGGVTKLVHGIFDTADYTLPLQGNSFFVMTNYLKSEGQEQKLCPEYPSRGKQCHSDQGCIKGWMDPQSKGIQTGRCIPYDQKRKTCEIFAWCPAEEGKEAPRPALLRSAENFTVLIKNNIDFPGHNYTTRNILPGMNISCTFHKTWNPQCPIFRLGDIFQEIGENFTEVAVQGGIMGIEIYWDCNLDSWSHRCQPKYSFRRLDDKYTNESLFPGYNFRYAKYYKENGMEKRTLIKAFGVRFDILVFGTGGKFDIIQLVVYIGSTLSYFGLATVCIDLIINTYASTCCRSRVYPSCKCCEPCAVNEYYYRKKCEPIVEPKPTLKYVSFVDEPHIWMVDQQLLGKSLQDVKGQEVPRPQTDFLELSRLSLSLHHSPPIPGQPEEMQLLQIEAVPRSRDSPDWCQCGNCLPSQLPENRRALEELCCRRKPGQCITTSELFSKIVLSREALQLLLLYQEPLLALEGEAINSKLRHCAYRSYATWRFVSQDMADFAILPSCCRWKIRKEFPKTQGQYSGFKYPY", "experiment": "Radioligand binding, tritiated A-804598, rat P2X7-1321N1 cell membranes", "conditions": "1 hour at 4° C.", "description": "(§2) On the day of the experiment, cell membrane preparations were made according to standard published methods. […] The assay was terminated by filtration (GF/B filters pre-soaked with 0.3% PEI) and washed with washing buffer (Tris-HCl 50 mM). The IC50 generated in the binding assay was corrected for tracer concentration and affinity of the tracer to derive at the affinity (Ki) of the test compounds."}, "rat P2X7 [3]": {"target": "T2, rat P2X7", "experiment": "Ca2+ flux (FLIPR) in 1321N1 cells expressing recombinant rat P2X7 channel;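 also: Calcium-4 dye fluorescence change read 180 s after agonist addition, following 30 min cell preincubation with test compound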", "assay_type": "cell-based", "conditions": "250 μM BzATP"}, "P2X7 [4]": {"target": "T1, P2X7", "experiment": "Ca2+ flux (FLIPR) in 1321N1 cells expressing recombinant human P2X7 channel;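 also: Calcium-4 dye-loaded cells exposed to compound for 30 min before agonist addition, fluorescence change read 180 s after agonist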", "assay_type": "cell-based", "conditions": "250 μM BzATP"}, "P2X7 [5]": {"target": "T1, P2X7", "experiment": "Radioligand binding, tritiated A-804598, human P2X7-1321N1 cell membranes;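 also: ki obtained from the binding IC50 after correction for tracer concentration and tracer affinity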", "conditions": "1 hour at 4° C.", "description": "as §2"}, "P2X7 [6]": {"target": "T1, P2X7", "experiment": "P2X7 antagonism in human whole blood (LPS + Bz-ATP induced IL-1β release, ELISA)", "assay_type": "cell-based", "conditions": "LPS 30 ng/ml, Bz-ATP 1 mM", "description": "as §1"}}}
{"smiles": "C[C@H]1c2nnn(-c3ccn(C)n3)c2CCN1C(=O)c1cccc(C(F)(F)F)c1Cl", "note": "(single isomer, unassigned) [Example 170, (S*)-(2-Chloro-3-(trifluoromethyl)phenyl)(4-methyl-1-(1-methyl-1H-pyrazol-3-yl)-6,7-dihydro-1H-[1,2,3]triazolo[4,5-c]pyridin-5(4H)-yl)methanone]", "values": [{"measurement": "PBMC 10 μM (% control)", "setting": "P2X7 [1]", "result": "−5.7", "unit": "% control"}, {"measurement": "Ki", "setting": "rat P2X7 [2]", "result": 3.2, "unit": "nM"}, {"measurement": "IC50", "setting": "rat P2X7 [3]", "result": 10.2, "unit": "nM"}, {"measurement": "IC50", "setting": "P2X7 [4]", "result": 8.9, "unit": "nM"}, {"measurement": "Ki", "setting": "P2X7 [5]", "result": 20, "unit": "nM"}]}
{"smiles": "C[C@H]1c2nnn(-c3ccn(CCF)n3)c2CCN1C(=O)c1cccc(C(F)(F)F)c1Cl", "note": "(single isomer, unassigned) [Example 172, (S*)-(2-Chloro-3-(trifluoromethyl)phenyl)(1-(1-(2-fluoroethyl)-1H-pyrazol-3-yl)-4-methyl-6,7-dihydro-1H-[1,2,3]triazolo[4,5-c]pyridin-5(4H)-yl)methanone]", "values": [{"measurement": "PBMC 10 μM (% control)", "setting": "P2X7 [1]", "result": "−6.0", "unit": "% control"}, {"measurement": "Ki", "setting": "rat P2X7 [2]", "result": 5, "unit": "nM"}, {"measurement": "IC50", "setting": "rat P2X7 [3]", "result": 5.4, "unit": "nM"}]}
{"smiles": "O=C(c1cccc(C(F)(F)F)c1Cl)N1CCc2c(-c3ccccc3)n[nH]c2C1", "note": "[Example 99, (2-Chloro-3-(trifluoromethyl)phenyl)(3-phenyl-4,5-dihydro-1H-pyrazolo[3,4-c]pyridin-6(7H)-yl)methanone]", "values": [{"measurement": "PBMC 1 μM (% control)", "setting": "P2X7 [1]; compound 1 μM", "result": 7.0, "unit": "% control"}, {"measurement": "Ki", "setting": "rat P2X7 [2]", "result": 741, "unit": "nM"}, {"measurement": "IC50", "setting": "rat P2X7 [3]", "result": 195, "unit": "nM"}, {"measurement": "IC50", "setting": "P2X7 [4]", "result": 11.5, "unit": "nM"}, {"measurement": "Ki", "setting": "P2X7 [5]", "result": 81.3, "unit": "nM"}]}
{"smiles": "O=C(c1ccc(F)c(Cl)c1Cl)N1CCc2c(nnn2-c2ccccn2)C1", "note": "[Example 130, (2,3-Dichloro-4-fluorophenyl)(1-(pyridin-2-yl)-6,7-dihydro-1H-[1,2,3]triazolo[4,5-c]pyridin-5(4H)-yl)methanone]", "values": [{"measurement": "PBMC 10 μM (% control)", "setting": "P2X7 [1]", "result": 3.7, "unit": "% control"}, {"measurement": "IC50", "setting": "rat P2X7 [3]", "result": 154, "unit": "nM"}, {"measurement": "IC50", "setting": "P2X7 [6]", "result": 501, "unit": "nM"}, {"measurement": "IC50", "setting": "P2X7 [4]", "result": 3.6, "unit": "nM"}, {"measurement": "Ki", "setting": "P2X7 [5]", "result": 50.1, "unit": "nM"}]}
{"smiles": "O=C(c1cccc(C(F)(F)F)c1Cl)N1CCc2c(nnn2-c2cc(F)ccn2)C1", "note": "[Example 131, (2-Chloro-3-(trifluoromethyl)phenyl)(1-(4-fluoropyridin-2-yl)-6,7-dihydro-1H-[1,2,3]triazolo[4,5-c]pyridin-5(4H)-yl)methanone]", "values": [{"measurement": "PBMC 10 μM (% control)", "setting": "P2X7 [1]", "result": 8.3, "unit": "% control"}, {"measurement": "IC50", "setting": "rat P2X7 [3]", "result": 51.5, "unit": "nM"}, {"measurement": "IC50", "setting": "P2X7 [6]", "result": 316, "unit": "nM"}, {"measurement": "IC50", "setting": "P2X7 [4]", "result": 2.9, "unit": "nM"}, {"measurement": "Ki", "setting": "P2X7 [5]", "result": 50.1, "unit": "nM"}]}
{"smiles": "Cc1ccnc(-n2nnc3c2CCN(C(=O)c2cccc(C(F)(F)F)c2Cl)[C@@H]3C)n1", "note": "[Example 235, (4R)-(2-Chloro-3-(trifluoromethyl)phenyl)(4-methyl-1-(4-methylpyrimidin-2-yl)-6,7-dihydro-1H-[1,2,3]triazolo[4,5-c]pyridin-5(4H)-yl)methanone]", "values": [{"measurement": "PBMC 10 μM (% control)", "setting": "P2X7 [1]", "result": "−3.7", "unit": "% control"}, {"measurement": "Ki", "setting": "rat P2X7 [2]", "result": 3.1, "unit": "nM"}, {"measurement": "IC50", "setting": "rat P2X7 [3]", "result": 6.6, "unit": "nM"}, {"measurement": "IC50", "setting": "P2X7 [4]", "result": 5.4, "unit": "nM"}, {"measurement": "Ki", "setting": "P2X7 [5]", "result": 14.1, "unit": "nM"}]}
